Assay: Anticoagulant activity ex vivo, prothrombin time
Type: in vivo, OFA rats
Settings: i.v.
Protocol: OFA rats, fasted or otherwise, are anesthetized with pentobarbital (60 mg/kg i.p.). The carotid and the jugular are exposed and catheterized. The catheters are flushed with citrated (1/40) physiological solution. After installation of the catheters, a sample of 1.5 cm^3 of arterial blood is withdrawn into 0.109M citrate (1/9).
30 minutes later, the test product is admini- stered i.v. in a volume of 1 ml.
Arterial blood samples (1.5 ml) are then withdrawn at 1 min 30 sec, 3 min, 5 min, 15 min, 30 min and 60 min.
As each sample is withdrawn, 1.5 ml of citrated physiological solution is reinjected into the animal via the carotid.
The blood tubes are centrifuged for 15 min at 4000 rpm (preparation of plasma).
100 μl of plasma are incubated with 200 μl of neoplastin calcium. The time of onset of the coagulation phenomenon is measured.

Substance: hirudin
- duration of in vivo activity: 30 min

Reference: patent publication US5371071A, “Peptide and pseudopeptide compounds which are therapeutically active in the blood coagulation cascade” (Adir et Compagnie, priority 1992, dated 1994)
